{"source": "paper PMC3510433", "about": "“Adamantyl carboxamides and acetamides as potent human 11β-hydroxysteroid dehydrogenase type 1 inhibitors” (Bioorganic & Medicinal Chemistry, 2012)", "key": {"[1]": {"assay": "Stability in incubation with human liver microsomes", "assay_type": "in vitro ADME", "settings": "37 °C, NADPH; for half-life: 40 min", "protocol": "Potent inhibitors (3 and 15) were incubated at 37 °C for 40 min with human liver microsomes in the presence of the cofactor NADPH to evaluate their stability under such conditions. The remaining parent compound was measured using a HPLC method."}, "[2]": {"molecular_target": "human cytochrome P450 2C19 (Homo sapiens, UniProt P33261)", "sequence (P33261 whole entry)": "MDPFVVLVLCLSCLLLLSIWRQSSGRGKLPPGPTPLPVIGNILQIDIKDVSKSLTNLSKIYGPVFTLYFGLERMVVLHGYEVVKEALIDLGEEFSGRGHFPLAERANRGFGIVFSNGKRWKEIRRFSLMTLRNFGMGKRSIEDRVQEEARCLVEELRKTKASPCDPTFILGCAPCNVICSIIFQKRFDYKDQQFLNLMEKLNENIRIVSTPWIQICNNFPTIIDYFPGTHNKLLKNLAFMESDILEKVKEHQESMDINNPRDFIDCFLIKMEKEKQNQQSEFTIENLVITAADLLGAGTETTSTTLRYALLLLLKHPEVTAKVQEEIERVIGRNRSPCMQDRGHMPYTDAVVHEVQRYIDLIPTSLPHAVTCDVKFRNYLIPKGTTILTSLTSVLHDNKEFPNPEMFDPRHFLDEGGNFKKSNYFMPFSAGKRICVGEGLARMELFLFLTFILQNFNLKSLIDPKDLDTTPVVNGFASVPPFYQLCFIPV", "assay": "Inhibition of human cytochrome P450 2C19", "assay_type": "in vitro ADME", "settings": "for IC50: mean value of two measurements; for Percentage inhibition of 2C19: 10 μM", "source_text": "(§1) To identify potential problems with these compounds interfering with the metabolism of other drugs, compounds 3, 4, 15 and 41 were studied for their inhibition of the key human cytochrome P450 enzymes: 1A2, 2C9, 2C19, 2D6, 3A4-BFC (7-benzyloxy-4-(trifluoromethyl)coumarin) and 3A4-BQ (7-benzyloxyquinoline) (Table 6)."}, "[3]": {"molecular_target": "human cytochrome P450 2C9 (Homo sapiens, UniProt P11712)", "sequence (P11712 whole entry)": "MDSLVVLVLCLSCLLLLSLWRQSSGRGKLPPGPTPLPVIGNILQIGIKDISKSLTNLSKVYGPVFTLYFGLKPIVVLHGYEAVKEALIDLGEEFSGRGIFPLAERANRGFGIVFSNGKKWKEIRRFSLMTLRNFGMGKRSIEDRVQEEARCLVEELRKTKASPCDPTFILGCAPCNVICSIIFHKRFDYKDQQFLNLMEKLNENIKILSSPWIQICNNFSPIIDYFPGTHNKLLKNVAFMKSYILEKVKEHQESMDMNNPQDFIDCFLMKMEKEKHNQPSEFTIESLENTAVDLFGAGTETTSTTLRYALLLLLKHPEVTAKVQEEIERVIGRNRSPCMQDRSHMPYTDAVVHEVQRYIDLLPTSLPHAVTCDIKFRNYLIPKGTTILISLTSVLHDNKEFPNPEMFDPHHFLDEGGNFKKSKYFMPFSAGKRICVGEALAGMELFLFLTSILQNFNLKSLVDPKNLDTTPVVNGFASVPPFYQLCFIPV", "assay": "Inhibition of human cytochrome P450 2C9", "assay_type": "in vitro ADME", "settings": "for IC50: mean value of two measurements; for Percentage inhibition of 2C9: 10 μM", "source_text": "as §1"}, "[4]": {"molecular_target": "human cytochrome P450 3A4-BFC (Homo sapiens, UniProt P08684)", "sequence (P08684 whole entry)": "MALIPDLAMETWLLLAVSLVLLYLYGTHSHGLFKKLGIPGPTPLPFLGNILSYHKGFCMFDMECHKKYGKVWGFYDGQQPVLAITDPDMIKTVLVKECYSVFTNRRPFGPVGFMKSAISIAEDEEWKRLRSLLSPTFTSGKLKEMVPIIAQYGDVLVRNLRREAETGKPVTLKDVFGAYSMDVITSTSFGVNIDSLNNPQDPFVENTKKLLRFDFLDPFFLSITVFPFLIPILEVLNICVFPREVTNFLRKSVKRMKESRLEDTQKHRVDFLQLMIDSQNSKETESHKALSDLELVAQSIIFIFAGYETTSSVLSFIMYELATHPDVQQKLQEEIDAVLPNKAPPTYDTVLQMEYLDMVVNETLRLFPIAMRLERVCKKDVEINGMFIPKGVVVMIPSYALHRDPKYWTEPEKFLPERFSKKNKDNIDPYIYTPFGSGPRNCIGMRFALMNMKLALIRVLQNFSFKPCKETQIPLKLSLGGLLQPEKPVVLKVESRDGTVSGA", "assay": "Inhibition of human cytochrome P450 3A4-BFC (7-benzyloxy-4-(trifluoromethyl)coumarin)", "assay_type": "in vitro ADME", "settings": "mean value of two measurements", "source_text": "as §1"}, "[5]": {"molecular_target": "human cytochrome P450 3A4-BQ (Homo sapiens, UniProt P08684)", "sequence (P08684 whole entry)": "as above", "assay": "Inhibition of human cytochrome P450 3A4-BQ (7-benzyloxyquinoline)", "assay_type": "in vitro ADME", "settings": "for IC50: mean value of two measurements; for Percentage inhibition of 3A4-BQ: 10 μM", "source_text": "as §1"}, "[6]": {"molecular_target": "T1, human cytochrome P450 1A2 (Homo sapiens, UniProt P05177)", "T1 sequence (P05177 1-516)": "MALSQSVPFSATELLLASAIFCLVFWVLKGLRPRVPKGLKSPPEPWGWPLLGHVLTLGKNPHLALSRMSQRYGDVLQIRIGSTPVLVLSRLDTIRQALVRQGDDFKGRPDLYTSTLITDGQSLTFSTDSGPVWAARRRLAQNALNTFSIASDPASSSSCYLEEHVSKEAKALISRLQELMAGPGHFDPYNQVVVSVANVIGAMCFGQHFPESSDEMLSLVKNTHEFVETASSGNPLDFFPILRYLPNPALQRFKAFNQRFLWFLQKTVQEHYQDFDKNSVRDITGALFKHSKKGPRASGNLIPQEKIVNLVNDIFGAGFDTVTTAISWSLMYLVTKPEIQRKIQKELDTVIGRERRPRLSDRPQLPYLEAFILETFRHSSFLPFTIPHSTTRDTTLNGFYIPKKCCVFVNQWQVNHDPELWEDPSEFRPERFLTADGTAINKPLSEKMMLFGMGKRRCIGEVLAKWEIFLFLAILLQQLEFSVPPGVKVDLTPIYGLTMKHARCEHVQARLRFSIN", "assay": "Inhibition of human cytochrome P450 1A2", "assay_type": "in vitro ADME", "settings": "for IC50: mean value of two measurements; for Percentage inhibition of 1A2: 10 μM", "source_text": "as §1"}, "human 11β-HSD1": {"molecular_target": "T2, human 11β-HSD1 (Homo sapiens, UniProt P28845)", "T2 construct": "expressed in transfected cells; host or cells: HEK-293 (human), stably transfected", "T2 sequence (P28845 whole entry)": "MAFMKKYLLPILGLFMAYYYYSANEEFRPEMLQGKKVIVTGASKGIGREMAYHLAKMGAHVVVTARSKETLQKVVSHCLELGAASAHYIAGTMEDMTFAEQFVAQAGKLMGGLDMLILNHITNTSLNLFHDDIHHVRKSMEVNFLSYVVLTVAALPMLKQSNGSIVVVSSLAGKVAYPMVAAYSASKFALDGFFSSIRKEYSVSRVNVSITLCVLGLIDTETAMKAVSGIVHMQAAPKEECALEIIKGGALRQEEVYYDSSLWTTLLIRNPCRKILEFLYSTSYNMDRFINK", "assay": "11β-HSD1 inhibition, human HEK-293 cell based assay (SPA)", "settings": "for IC50: HEK-293 cells stably transfected with HSD11B1, mean of 3 measurements; for inhibition at 1 µM: HEK293, HEK-293 cells transfected with HSD11B1, read-out: Percentage of inhibition measured at 1 μM", "protocol": "11β-HSD1 inhibition was measured in intact human HEK-293 cells to reveal the true inhibitory activity. Differences in observed effects for different compounds may reflect combinatorial factors including the ability to penetrate the cell membrane, the stability within the cell and the binding ability to the enzyme.\nThe cell-based assays were conducted on the human HEK-293 cell line stably transfected with the HSD11B1 gene.[28] 11β-HSD1 activity was determined by measuring the amount of tritiated product formed using a scintillation proximity assay (SPA).\nCells were incubated in 96-well micro-plates in the presence of tritiated cortisone substrate and the assay plates contained internal high and low controls to allow calculation of percentage inhibition. Each well of a 96-well culture plate was seeded with human 11β-HSD1 overexpressed HEK293 cells in 100 μL medium. When the cells were 80% confluent, the medium was removed from each well then 100 μL of fresh, serum-free, medium containing ^3H-cortisone (22 nM) and test compound in 1% DMSO was added. The control wells were also dispensed. […] The plate was incubated at 37 °C for 2 h, after which 50 μL of medium was removed from each well and transferred to a microplate containing 100 μL of a pre-incubated mixture of anti-cortisol antibody and SPA bead. The mixture was incubated with gentle shaking until equilibrium was reached, before transferring to a scintillation counter to establish the enzyme activity in each sample.\nThe compounds were initially tested at a concentration of 1 μM. Those compounds showing over 70% inhibition of 11β-HSD1 at 1 μM were subjected to an IC50 measurement. A Merck compound 544 was used as the reference compound in the assay (IC50 = 50 ± 20 nM).[19] The IC50 values are reported as the mean value of 3 measurements with variance less than 20%. IC50 values were calculated from the dose-response curve using Microsoft Excel add-in XLfit with a Four Parameter Logistic nonlinear regression model."}, "[7]": {"system": "key human cytochrome P450 enzymes", "assay": "Inhibition of the key human cytochrome P450 enzymes (panel, summary statements)", "assay_type": "in vitro ADME", "source_text": "as §1"}, "[8]": {"molecular_target": "human cytochrome P450 2D6 (Homo sapiens, UniProt P10635)", "sequence (P10635 whole entry)": "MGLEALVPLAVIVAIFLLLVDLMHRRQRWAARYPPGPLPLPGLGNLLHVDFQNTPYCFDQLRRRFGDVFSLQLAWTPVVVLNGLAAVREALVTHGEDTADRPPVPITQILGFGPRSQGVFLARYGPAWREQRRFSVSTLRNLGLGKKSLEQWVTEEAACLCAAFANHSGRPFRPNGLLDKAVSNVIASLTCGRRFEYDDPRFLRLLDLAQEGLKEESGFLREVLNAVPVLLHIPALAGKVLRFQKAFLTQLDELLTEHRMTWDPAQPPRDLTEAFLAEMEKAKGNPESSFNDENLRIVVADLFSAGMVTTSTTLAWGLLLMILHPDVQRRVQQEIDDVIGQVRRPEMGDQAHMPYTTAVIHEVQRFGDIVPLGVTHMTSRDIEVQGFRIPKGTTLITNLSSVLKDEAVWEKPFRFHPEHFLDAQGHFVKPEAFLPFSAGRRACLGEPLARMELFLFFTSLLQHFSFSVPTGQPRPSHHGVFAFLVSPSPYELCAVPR", "assay": "Inhibition of human cytochrome P450 2D6", "assay_type": "in vitro ADME", "settings": "for IC50: mean value of two measurements; for Percentage inhibition of 2D6: 10 μM", "source_text": "as §1"}, "[9]": {"system": "CYP 2CA (so in the source), CYP3A4", "assay": "Inhibition of the key human cytochrome P450 enzymes (panel, summary statements)", "assay_type": "in vitro ADME", "settings": "human; 2CA, 3A4-BFC and 3A4-BQ", "source_text": "as §1"}, "Caco-2 cell model": {"system": "Caco-2 cell model", "assay": "Membrane permeability, Caco-2 cell model", "assay_type": "in vitro ADME", "settings": "Caco-2, 20 μM", "source_text": "(§2) Compound 3 was studied for its membrane permeability using the Caco-2 cell model."}, "[10]": {"assay": "Membrane permeability, Caco-2 cell model", "assay_type": "in vitro ADME", "settings": "human, Caco-2; apical to basolateral, 20 μM", "source_text": "as §2"}}, "note": "Entries after “also recorded” stand apart in the source; their conditions may differ. Marks after values point to notes of the source that are not given here."}
{"smiles": "CN(Cc1cccn1C)C(=O)C12CC3CC(CC(C3)C1)C2", "note": "[Compound 15, N-Methyl-N-((1-methyl-1H-pyrrol-2-yl)-methyl)adamantane-1-carboxamide]", "values": [{"measurement": "half-life", "setting": "[1]", "value": "1 to 1.17", "unit": "h"}, {"measurement": "stability with human liver microsomes (in words)", "setting": "[1]", "value": "moderate stability; also recorded: moderately stable; also recorded: relatively stable"}, {"measurement": "IC50", "setting": "[2]", "value": "> 100", "unit": "µM"}, {"measurement": "IC50", "setting": "[3]", "value": "> 100", "unit": "µM"}, {"measurement": "IC50", "setting": "[4]", "value": 19, "unit": "µM"}, {"measurement": "IC50", "setting": "[5]", "value": 18, "unit": "µM"}, {"measurement": "IC50", "setting": "[6]", "value": "> 100", "unit": "µM"}, {"measurement": "IC50", "setting": "human 11β-HSD1", "value": 0.114, "unit": "µM"}, {"measurement": "fold more potent than compound 16", "setting": "human 11β-HSD1; N-methyl amide vs NH analogue 16", "value": "over 15 times"}, {"measurement": "inhibition of the key human cytochrome P450 enzymes (in words)", "setting": "[7]; 1A2, 2C9, 2C19, 2D6, 3A4-BFC, 3A4-BQ", "value": "weak inhibitory activity; also recorded: very weak inhibition; also recorded: very weak inhibitory activity"}, {"measurement": "IC50", "setting": "[8]", "value": "> 100", "unit": "µM"}]}
{"smiles": "Cc1ccc(C2(C(=O)N(C)Cc3cccs3)CC2)cc1", "note": "[Compound 41, N-Methyl-N-(thiophen-2-ylmethyl)-1-p-tolylcyclopropanecarboxamide]", "values": [{"measurement": "IC50", "setting": "[2]", "value": "> 100", "unit": "µM"}, {"measurement": "IC50", "setting": "[3]", "value": 4.5, "unit": "µM"}, {"measurement": "IC50", "setting": "[4]", "value": 7.3, "unit": "µM"}, {"measurement": "IC50", "setting": "[5]", "value": 1.6, "unit": "µM"}, {"measurement": "IC50", "setting": "[6]", "value": "> 100", "unit": "µM"}, {"measurement": "IC50", "setting": "human 11β-HSD1", "value": 0.28, "unit": "µM"}, {"measurement": "IC50", "setting": "[9]", "value": "1.6 to 7.3", "unit": "µM"}, {"measurement": "IC50", "setting": "[8]", "value": 72, "unit": "µM"}]}
{"smiles": "CN(Cc1cccs1)C(=O)C12CC3CC(CC(C3)C1)C2", "note": "[Compound 3]", "values": [{"measurement": "half-life", "setting": "[1]", "value": "1 to 1.17", "unit": "h"}, {"measurement": "stability with human liver microsomes (in words)", "setting": "[1]", "value": "moderately stable"}, {"measurement": "Percentage inhibition of 2C19", "setting": "[2]", "value": 13, "unit": "% ^a"}, {"measurement": "Percentage inhibition of 2C9", "setting": "[3]", "value": 62, "unit": "% ^a"}, {"measurement": "IC50", "setting": "[4]", "value": 10, "unit": "µM"}, {"measurement": "Percentage inhibition of 3A4-BQ", "setting": "[5]", "value": 34, "unit": "% ^a"}, {"measurement": "permeability (in words)", "setting": "Caco-2 cell model", "value": "high permeability"}, {"measurement": "Papp A→B at 20 μM", "setting": "[10]", "value": 33, "unit": "×10⁻⁶ cm/s"}, {"measurement": "Percentage inhibition of 1A2", "setting": "[6]", "value": 6, "unit": "% ^a"}, {"measurement": "IC50", "setting": "human 11β-HSD1", "value": 0.229, "unit": "µM"}, {"measurement": "activity against 2C9 and 3A4-BFC (in words)", "setting": "[7]; 2C9 and 3A4-BFC", "value": "weak activity"}, {"measurement": "Percentage inhibition of 2D6", "setting": "[8]", "value": 2, "unit": "% ^a"}]}
{"smiles": "CN(Cc1cccs1)C(=O)CC12CC3CC(CC(C3)C1)C2", "note": "[Compound 4, 2-(Adamantan-1-yl)-N-methyl-N-(thiophen-2-ylmethyl)acetamide]", "values": [{"measurement": "Percentage inhibition of 2C19", "setting": "[2]", "value": 80, "unit": "% ^a"}, {"measurement": "Percentage inhibition of 2C9", "setting": "[3]", "value": 49, "unit": "% ^a"}, {"measurement": "IC50", "setting": "[4]", "value": 0.15, "unit": "µM"}, {"measurement": "Percentage inhibition of 3A4-BQ", "setting": "[5]", "value": 66, "unit": "% ^a"}, {"measurement": "Percentage inhibition of 1A2", "setting": "[6]", "value": 1, "unit": "% ^a"}, {"measurement": "IC50", "setting": "human 11β-HSD1", "value": 0.308, "unit": "µM"}, {"measurement": "Percentage inhibition of 2D6", "setting": "[8]", "value": 9, "unit": "% ^a"}]}
{"smiles": "CN(CCc1ccccn1)C(=O)C12CC3CC(CC(C3)C1)C2", "note": "[Compound 30, N-Methyl-N-(2-(pyridin-2-yl)ethyl)-adamantane-1-carboxamide]", "values": [{"measurement": "IC50", "setting": "human 11β-HSD1", "value": 0.165, "unit": "µM"}, {"measurement": "melting point", "value": "64 to 65", "unit": "°C"}]}
{"smiles": "O=C(NCCc1cccnc1)C12CC3CC(CC(C3)C1)C2", "note": "[Compound 32, N-(2-(Pyridin-3-yl)ethyl)adamant-ane-1-carboxamide]", "values": [{"measurement": "inhibition at 1 µM", "setting": "human 11β-HSD1", "value": 1, "unit": "%"}, {"measurement": "melting point", "value": "83 to 85", "unit": "°C"}]}
{"smiles": "CN(Cc1nccn1C)C(=O)C12CC3CC(CC(C3)C1)C2", "note": "[Compound 17, N-Methyl-N-((1-methyl-1H-imidazol-2-yl)methyl)adamantane-1-carboxamide]", "values": [{"measurement": "inhibition at 1 µM", "setting": "human 11β-HSD1", "value": 24, "unit": "%"}, {"measurement": "melting point", "value": "175 to 176", "unit": "°C"}]}
{"smiles": "CC(=O)Nc1cccc(CN(C)C(=O)C23CC4CC(CC(C4)C2)C3)c1", "note": "[Compound 21, N-(3-Acetamidobenzyl)-N-methyl-adamantane-1-carboxamide]", "values": [{"measurement": "inhibition at 1 µM", "setting": "human 11β-HSD1", "value": 22, "unit": "%"}, {"measurement": "melting point", "value": "109 to 111", "unit": "°C"}]}
